The values below come from patent publication US20220241437A1, “ATHER[…] AGENTS AND METHODS OF USING THE SAME” (THE GENERAL HOSPITAL CORPORATION, priority 2015, published 2022).

Like-named read-outs stand apart in the source and are kept apart here.

One data set has as its system atheroma. Nature of the data set: NIRF / multi-wavelength fluorescence reflectance imaging (FRI) of resected aortas in rabbit atherosclerosis model. The note with it: for co-localization in atherosclerotic zones by FRI: MB 1 mg/kg 24 hours and ICG 0.5 mg/kg 0.5 hours before imaging, rabbit m464. It counts as in vivo. The source says:
New Zealand white rabbits (3-4 kg, Charles River Laboratories, n=2) were fed a high cholesterol diet (0.3% total cholesterol, 5% peanut oil; Research Diets) and were subjected to an infrarenal abdominal aorta injury using a 3F Fogarty embolectomy balloon (Edwards Lifesciences). The 3F balloon was inserted percutaneously via the femoral artery, inflated to nominal pressure, and withdrawn under tension and repeated. After recovery from the injury, the rabbits were continued on the 0.3% high cholesterol diet, and their total serum cholesterol levels were routinely measured (Hemagen Diagnostics).
24 hours prior to atheroma imaging, 1 mg/kg concentration of MB in a phosphate buffer saline solution was administered to the rabbit subjects intravenously.
28 days after aortic injury and continuation on the high cholesterol diet, the rabbits were anesthetized and imaged using various imaging modalities. An aortic angiography (ARCADIS Varic C-arm fluoroscopy unit, Siemens) was performed on the rabbits with a manual contrast injection. After the angiography, an intravascular ultrasound (IVUS) was performed using a catheter (iLab, Boston Scientific). The IVUS catheter was used with an automated 0.5 mm/second pullback across the previously injured aortic region to assess plaque burden. Finally, the rabbit subjects underwent near-infrared fluorescence optical coherence tomography (NIRF-OCT) imaging.
Following multimodality imaging, the rabbits were euthanized, and their aortas were removed and placed in saline at 4° C. The freshly resected aortas were imaged using multi-wavelength fluorescence reflectance imaging (FRI) with fluorescein isothiocyanite (FITC) and MB having emission wavelengths of 535 nm and 700 nm, respectively. While using the FRI system (Kodak ImageStation 4000, Carestream Health), the excitation source used for triggering FITC's autofluorescence was focused around 470 nm with an exposure time of 4 seconds. MB's near-infrared fluorescence was triggered by excitation wavelengths around 630 nm for 64 seconds. […] The target-to-background ratios(TBRs) were calculated for each ROI as the mean plaque fluorescence divided by the background fluorescence measured in the adjacent normal vessel.
A concentration of 1 mg/kg MB in phosphate buffer saline solution was co-injected with a 0.5 mg/kg solution of indocyanine green (ICG) into the aorta of the rabbit subject, m464, 24 hours and 0.5 hours before imaging, respectively. Fluorescence reflectance imaging (FRI) was performed to evaluate uptake and distribution of MB and ICG. […]
The TBRs were calculated as the mean fluorescence divided by the background fluorescence of the adjacent normal aorta. […]

Data set [1] can be described thus: Half-life of MB in rabbit bloodstream from fluorescence intensity over time. The note with it: blood, intravenous, 1 mg/kg. It counts as in vivo. How it is done: The methylene blue (MB) binding and uptake was evaluated in a rabbit model of atherosclerosis of the abdominal aorta. […] The half-life for MB in rabbit bloodstreams was measured in two subjects, m463 and m464 that had been subjected to a high cholesterol diet and the high inflammation protocol.

In another data set the test system is atherosclerotic lesions. Nature of the data set: Fluorescence microscopy, histology and RAM11 immunohistochemistry of aorta/vessel cross-sections. The format is in vivo, rabbit. The procedure: A histology analysis for the aortas was then performed. The excised aortas were filled with an optimal cutting temperature compound and then snap frozen on dry ice. Using a cryostat (Leica CM3050 S), 8 μm sections of the aortas were obtained. The tissue sections were stained for hemotoxylin and eosin (H&E), Masson's Trichrome, and Oil Red 0 (ORO) histological imaging. Additionally, immunohistochemistry tests were performed for macrophages (RAM11; Dako).
Unstained tissue sections were imaged with a multi-wavelength fluorescence microscope (Nikon Eclipse 90i) for FITC and MB. FITC's autofluorescence emissions at 535 nm were excited with a 480 nm source, and MB's near-infrared fluorescent emissions at 700 nm were excited with a 630 nm Cy5.5 source.
The co-localization of MB and ICG found through FRI was also verified using high-resolution epifluorescence microscopy of fresh-frozen tissue cross-sections from the areas of interest outlined in the FRI results. […] Further, the MB binding was associated with cellular uptake when evaluating sections counterstained with a fluorescent nuclear stain.
Fluorescent microscopy (FM) was performed on a cross-section of the aorta of m464 in the fluorescein isothiocyanite (FITC) and Cy5 channels. […] The white areas represent the near-infrared fluorescence of MB under a Cy5.5 source. The grey areas represent the autofluorescence of FITC. There is little overlap between the MB and FITC areas, evidencing the unique uptake and binding profile for MB in atherosclerotic structures not targeted by other imaging agents. […] Again, the distinction between the areas of MB binding and FITC autofluorescence indicate MB's utility as an atheroma targeting agent unlike any other. Further, the TBR of MB in FIGS. 6A and 6B illustrates the robustness of the targeting profile of MB.
Moreover, FIGS. 7A-7C show FM images of an axial section of a subject's vessel including a venous thrombus after undergoing vessel injury according to the high inflammation protocol. The subject was injected with a 1 mg/kg MB concentration in a phosphate buffer saline solution 24 hours prior to imaging. […] This again evidences the unique binding pattern that MB may offer for vascular imaging.
MB binding in the aortas of the subjects was also evaluated using traditional histological stains. A tissue cross-section fluorescently imaged to evaluate MB uptake was further treated with a hemotoxylin and eosin (H&E) stain. […] Even less cellular areas were also found to have MB uptake.
Finally, the cross-section was imaged using immunohistochemical-staining techniques. The immunohistochemical stain RAM11 which is a known macrophage marker was used to cross-correlate the MB binding images. […] These areas where not limited to a specific location. For example, one area of consistent MB and RAM11 co-localization was located near the luminal side of internal elastic lamina as well as other regions of the atheroma.

The conditions of data set [2]: healthy human volunteers, intravenous (Peter et al. 2000); cited from earlier work.
For data set [3] the following is noted: phosphate buffer saline solution; cited from earlier work.

With `CC1(C)C(/C=C/C=C/C=C/C=C2\N(CCCCS(=O)(=O)O)c3ccc4ccccc4c3C2(C)C)=[N+](CCCCS(=O)(=O)[O-])c2ccc3ccccc3c21` [ICG, Indocyanine green], in the data set on atheroma, the “co-localization in atherosclerotic zones by FRI” value is “co-localization of MB and ICG in the atherosclerotic zones of the aorta”.

One may read the half-life as the time in which the quantity being followed falls by half. `CN(C)c1ccc2nc3ccc(N(C)C)cc3[s+]c2c1.[Cl-]` [MB, [7-(dimethylamino)phenothiazin-3-ylidene]-dimethylazanium chloride]: the half-life is 7.35 h in data set [1] (1 phase exponential decay of fluorescence intensity, read-out: half-life of MB in bloodstream (converted)); roughly 5.25 h in data set [1] (mean of m463 and m464, read-out: average of the MB half-life in the rabbits tested (converted)); 3.13 h in data set [1] (rabbit subject m463, 1 phase exponential decay of fluorescence intensity, read-out: half-life of MB in bloodstream (converted)); roughly 3 h in data set [1] (rabbit subject m463, read-out: half-life of MB in bloodstream (converted)); roughly 7.4 h in data set [1] (read-out: half-life of MB in bloodstream (converted)). Further, in the data set on atheroma (1 mg/kg intravenous, rabbit atherosclerosis model), the “deposition in plaques detected by NIRF imaging” value is on record as “can produce deposition of MB in plaques of rabbits”. In the data set on atheroma, the “co-localization in atherosclerotic zones by FRI” value is “co-localization of MB and ICG in the atherosclerotic zones of the aorta”. In the data set on atheroma (MB 1 mg/kg i.v. 24 hours before imaging, versus aortas without MB, FRI), the “target-to-background ratios (TBRs) of aortas” value is “higher TBRs than those without MB”. In addition, the “targeting to atheroma in FM image of aortic cross-section” value in the data set on atherosclerotic lesions (1 mg/kg i.v. 24 hours before imaging, NIRF absent from normal arterial wall) was “highly targeted to the atheroma”. Besides, the “uptake in vessel with venous thrombus (FM)” value in the data set with atherosclerotic lesions (1 mg/kg in phosphate buffer saline 24 hours prior to imaging) was “distinct spots or drops along the inner vessel walls and in the venous thrombus”. Moreover, the “association of uptake with macrophages (RAM11 staining)” value with atherosclerotic lesions (aortic cross-section) is listed as “associated with areas positive for macrophages in the RAM11 staining”. The “depth of binding in lesions (H&E histology)” value in the data set with atherosclerotic lesions (aortic cross-section) is given as “seen in specific regions permeating the entire depth of the lesions”. For the same compound, in the data set on atherosclerotic lesions (fresh-frozen tissue cross-sections), the “localization of uptake by high-resolution epifluorescence microscopy” value is “localize in both microscopic lesions and atherosclerotic lesions with greater than 60% stenosis”. For the same compound, in data set [2], the blood half-life is 5.25 h. Also, the molar attenuation coefficient in data set [3] is recorded as 73,000 cm^−1/M. Moreover, in data set [3], the quantum yield was 5.3%. Also, in data set [3], the quenching threshold is 12.5 µM.
